Key:
Assay in all cases: relative viability (nuclei count vs DMSO), 5 days (fraction); higher = more cells survive
[1] = compound: C1CN(CCN1)C2=CC=C(C=C2)C3=CN4C(=C(C=N4)C5=CC=NC6=CC=CC=C56)N=C3 [DM3189] + CCNC(=O)c1noc(-c2cc(C(C)C)c(O)cc2O)c1-c1ccc(CN2CCOCC2)cc1 [Luminespib] (partner 0.01 µM)
Outline: (§1)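 Relative viability is defined as nuclei in treated wells over nuclei in vehicle wells. Duplicate plates were run and medians reported. Lung cancer cell lines in 1536-well plates were dosed by pin tool one day after seeding, with one drug or with a fixed anchor-drug dose plus five library-drug doses (not always all listed) in √10 steps, and nuclei were counted after 5 days.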

[2] = compound: C1CN(CCN1)C2=CC=C(C=C2)C3=CN4C(=C(C=N4)C5=CC=NC6=CC=CC=C56)N=C3 [DM3189] + CC(=O)Nc1cccc(-n2c(=O)n(C3CC3)c(=O)c3c(Nc4ccc(I)cc4F)n(C)c(=O)c(C)c32)c1 [Trametinib] (partner 0.02 µM)
Outline: as §1

[3] = compound: C1CN(CCN1)C2=CC=C(C=C2)C3=CN4C(=C(C=N4)C5=CC=NC6=CC=CC=C56)N=C3 [DM3189] + CS(=O)(=O)CCNCc1ccc(-c2ccc3ncnc(Nc4ccc(OCc5cccc(F)c5)c(Cl)c4)c3c2)o1 [Lapatinib] (partner 2 µM)
Outline: as §1

[4] = compound: C1CN(CCN1)C2=CC=C(C=C2)C3=CN4C(=C(C=N4)C5=CC=NC6=CC=CC=C56)N=C3 [DM3189] + CS(=O)(=O)N1CCN(Cc2cc3nc(-c4cccc5[nH]ncc45)nc(N4CCOCC4)c3s2)CC1 [Pictilisib] (partner 1 µM)
Outline: as §1

[5] = compound: C1CN(CCN1)C2=CC=C(C=C2)C3=CN4C(=C(C=N4)C5=CC=NC6=CC=CC=C56)N=C3 [DM3189] + CC(=O)c1c(C)c2cnc(Nc3ccc(N4CCNCC4)cn3)nc2n(C2CCCC2)c1=O [Palbociclib] (partner 0.5 µM)
Outline: as §1

Cell Line | relative viability ([1]; first compound 0.08 µM) | relative viability ([1]; first compound 0.253 µM) | relative viability ([1]; first compound 0.8 µM) | relative viability ([1]; first compound 2.53 µM) | relative viability ([2]; first compound 0.08 µM) | relative viability ([2]; first compound 0.253 µM) | relative viability ([2]; first compound 0.8 µM) | relative viability ([2]; first compound 2.53 µM) | relative viability ([3]; first compound 0.08 µM) | relative viability ([3]; first compound 0.253 µM) | relative viability ([3]; first compound 0.8 µM) | relative viability ([3]; first compound 2.53 µM) | relative viability ([4]; first compound 0.08 µM) | relative viability ([4]; first compound 0.253 µM) | relative viability ([4]; first compound 0.8 µM) | relative viability ([4]; first compound 2.53 µM) | relative viability ([5]; first compound 0.08 µM) | relative viability ([5]; first compound 0.253 µM) | relative viability ([5]; first compound 0.8 µM) | relative viability ([5]; first compound 2.53 µM)
201T | 1.16 | 1.01 | 1.14 | 0.941 | 0.729 | 0.743 | 0.728 | 0.734 | 1.06 | 1.03 | 0.998 | 1.03 | 0.766 | 0.73 | 0.515 | 0.702 | 0.419 | 0.364 | 0.342 | 0.366
A549 | – | – | – | – | – | – | – | – | 0.916 | 1.01 | 1.01 | 1 | 0.495 | 0.481 | 0.48 | 0.357 | – | – | – | –
A-427 | 1.13 | 0.89 | 0.806 | 0.745 | 0.865 | 0.736 | 0.638 | 0.819 | 1.08 | 1.03 | 0.983 | 0.929 | 0.866 | 0.677 | 0.617 | 0.865 | 0.593 | 0.492 | 0.474 | 0.524
ABC-1 | 0.516 | 0.489 | 0.531 | 0.278 | – | – | – | – | 1.3 | 1.06 | – | 0.931 | 0.838 | 0.636 | 0.757 | 0.631 | 0.713 | 0.642 | 0.498 | 0.553
BEN | 0.387 | 0.555 | 0.516 | 0.382 | 0.982 | 1.01 | 1.11 | 1.21 | 0.707 | 0.699 | 0.703 | 0.708 | 0.553 | 0.601 | 0.617 | 0.581 | 0.497 | 0.484 | 0.441 | 0.545
CAL-12T | 0.375 | 0.499 | 0.454 | 0.217 | 0.405 | 0.339 | 0.384 | 0.488 | 0.623 | 0.675 | 0.616 | 0.947 | 0.43 | 0.321 | 0.575 | 0.544 | 0.713 | 0.335 | 0.451 | 0.352
COR-L23 | 1.12 | 0.658 | 0.562 | 0.521 | 0.707 | 0.507 | 0.529 | 0.549 | 1.08 | 0.962 | 0.514 | 0.743 | 0.71 | 0.668 | 0.485 | 0.627 | 0.292 | 0.242 | 0.201 | 0.192
COR-L 105 | 0.812 | 0.83 | 0.705 | 0.778 | 0.467 | 0.488 | 0.471 | 0.504 | 0.432 | 0.362 | 0.312 | 0.281 | 0.52 | 0.398 | 0.361 | 0.275 | 0.408 | 0.441 | 0.353 | 0.489
ChaGo-K-1 | 0.643 | 0.52 | 0.492 | 0.676 | 0.937 | 0.876 | 0.919 | 0.936 | – | – | – | – | 0.756 | 0.67 | 0.808 | 0.584 | 0.947 | 0.908 | 0.914 | 0.964
